Experimental data: ChEMBL document CHEMBL3507680, “University of Dundee, Gates Library screen for HepG2 cell viability”

Test: Human HepG2 cell viability assay in 384 well format
Format: toxicity, cell-based
Parameters: dose 125 nL, time 70.5 hour; concentration not given beside the values
Conditions: HepG2 cells, read-out: Inhibition

CC1CN(CC(=O)NCCc2ccccc2)CCN1c1nccs1 (stereo not drawn)
cytotoxicity at 70.5 h: -5.41%

COc1ccccc1CNC(=O)N1CCCC(CO)C1 (stereo not drawn)
cytotoxicity at 70.5 h: 11.7%

COc1cc(NC(=O)c2cccc(N(C)C)c2)cc(OC)c1
cytotoxicity at 70.5 h: -7.19%

CCc1noc(C(C)N2CCC(NS(=O)(=O)c3cccs3)CC2)n1 (stereo not drawn)
cytotoxicity at 70.5 h: -11.6%

CC(c1nc(C2CC2)no1)N1CCC(NS(=O)(=O)c2cccs2)CC1 (stereo not drawn)
cytotoxicity at 70.5 h: -13.4%

COc1cc(C(=O)NC2COc3ccccc3C2)ccc1OCC(N)=O (stereo not drawn)
cytotoxicity at 70.5 h: -9.85%

O=C(CN1CCc2cncnc2C1)NC1CCCCNC1=O (stereo not drawn)
cytotoxicity at 70.5 h: 0.54%

CCn1ccnc1CN1CCCN(C(=O)c2cncnc2C)CC1
cytotoxicity at 70.5 h: 0.803%

NC1(c2nc(-c3cccs3)cc(=O)[nH]2)CCCC1
cytotoxicity at 70.5 h: 8.08%

Cn1nc2c(cc1=O)CN(CC(=O)NC1CCCCNC1=O)CC2 (stereo not drawn)
cytotoxicity at 70.5 h: 12.7%

O=C(NCCc1nncn1C1CC1)C1SCCc2sccc21 (stereo not drawn)
cytotoxicity at 70.5 h: -8.14%

COCCN(C(=O)c1ccc(OC)cc1)c1ccc(C#N)cc1
cytotoxicity at 70.5 h: 10.5%

COc1ccccc1CC(NC(=O)N1CCOCC1)C(C)C (stereo not drawn)
cytotoxicity at 70.5 h: 17.3%

CC(=O)N1CCCN(Cc2csc(C)n2)c2ccccc21
cytotoxicity at 70.5 h: -2.52%

CNC(=O)c1coc(-c2csc(C)n2)c1
cytotoxicity at 70.5 h: -6.74%

COc1cccc(/C=C/CCN2CCN(S(C)(=O)=O)CC2)c1
cytotoxicity at 70.5 h: -3.47%

COc1cc(NC(=O)N(C)CC2CC2)ncn1
cytotoxicity at 70.5 h: -7.89%

Cc1nc(C(C)(C)NCc2ncc(C(C)C)o2)sc1C
cytotoxicity at 70.5 h: -5.11%

CC(=O)N1CCCN(Cc2ccon2)c2ccccc21
cytotoxicity at 70.5 h: 18.6%

COCCN(CCOC)C(=O)c1ccoc1C
cytotoxicity at 70.5 h: -6.19%

CCOCCN1CCN(CC(=O)NC2(C#N)CCCC2)CC1CC (stereo not drawn)
cytotoxicity at 70.5 h: 0.4%

Cc1ncncc1C(=O)N1CCCN(Cc2ncc(Cl)n2C)CC1
cytotoxicity at 70.5 h: -1.21%

COc1ccccc1NCC(=O)Nc1cnn(Cc2ccccn2)c1
cytotoxicity at 70.5 h: -3.02%

COc1cccc(/C=C/CCN2CCCN(C(C)=O)CC2)c1
cytotoxicity at 70.5 h: -6.2%

CCOc1ccccc1N(C)Cc1nccn1C
cytotoxicity at 70.5 h: 4.63%

Cc1ccc2cccc(C(=O)NCCOCC3CC3)c2n1
cytotoxicity at 70.5 h: -0.418%

O=C(NCCc1cccnc1)NCCc1cccs1
cytotoxicity at 70.5 h: 2.09%

CC(C)Cc1noc(CN2CCC(C(=O)NCC3CCCO3)CC2)n1 (stereo not drawn)
cytotoxicity at 70.5 h: 10.6%

COCCn1nc(C(=O)N2CCOCC2C)ccc1=O (stereo not drawn)
cytotoxicity at 70.5 h: 16.9%

COc1ccncc1NC(=O)C1(c2ccc(F)cc2)CCC1
cytotoxicity at 70.5 h: -6.62%

COC(=O)c1ccc(N2CCN(C(=O)C3CCC3)C(C)C2)cc1 (stereo not drawn)
cytotoxicity at 70.5 h: 17.6%

COC(=O)CCNC(=O)c1nnn(-c2ccccc2)c1C(F)(F)F
cytotoxicity at 70.5 h: 0.121%

Cc1nnc2n1CCN(CC(=O)NC(C)c1ccc3ccccc3c1)C2 (stereo not drawn)
cytotoxicity at 70.5 h: 17.7%

COC(=O)c1ccc(N2CCN(C(=O)CC(F)(F)F)C(C)C2)cc1 (stereo not drawn)
cytotoxicity at 70.5 h: -9.89%

Cc1cc(C(=O)NC2(C#N)CCCC2)c(C)n1-c1cccnc1
cytotoxicity at 70.5 h: -6.05%

CCc1nc(CNC2CCN(c3ccc(OC)cc3)CC2)cs1
cytotoxicity at 70.5 h: -5.26%

Cc1c(C(=O)N2CCCOCC2)nnn1-c1cccc2cnccc12
cytotoxicity at 70.5 h: -0.438%

Cc1cc(NC(=O)CNC(C)(C)c2nc(C)c(C)s2)no1
cytotoxicity at 70.5 h: -7.18%

Cn1c(=O)[nH]c2cc(C(=O)OCCCn3ccccc3=O)ccc21
cytotoxicity at 70.5 h: 33.2%

NC(=O)NC(=O)CCN1CCN(CC2CC2)c2ccccc21
cytotoxicity at 70.5 h: 31.2%

NC(=O)NC(=O)CN1CCN(CC2CC2)c2ccccc21
cytotoxicity at 70.5 h: 8.16%

Cc1c(C(=O)N2CC(C)(C)C2(C)C)nnn1-c1cccc2cnccc12
cytotoxicity at 70.5 h: -2.78%

Cc1c(C(=O)N2CC(O)C2)nnn1-c1cccc2cnccc12
cytotoxicity at 70.5 h: -8.03%

COc1ccccc1C(=O)N(Cc1nc(C)cs1)CC1CCCO1 (stereo not drawn)
cytotoxicity at 70.5 h: 22.1%

CC(C)Cc1noc(CNc2cccc(-c3nnnn3C)c2)n1
cytotoxicity at 70.5 h: -11%

Cc1csc(CN(CC2CCCO2)C(=O)c2ccc(C)nc2C)n1 (stereo not drawn)
cytotoxicity at 70.5 h: 15.4%

CCOCCOC(C)C(=O)NCc1ccc(N2CCCCC2)cc1 (stereo not drawn)
cytotoxicity at 70.5 h: 0.804%

Cc1csc(CN(CC2CCCO2)C(=O)c2occc2C)n1 (stereo not drawn)
cytotoxicity at 70.5 h: 22.1%

CS(=O)(=O)NCC1CCCCN1Cc1cccc(C#N)c1 (stereo not drawn)
cytotoxicity at 70.5 h: -1.33%

CCOc1ccnc(N2CCCN(c3nc(CC)ns3)CC2)n1
cytotoxicity at 70.5 h: -2.91%

CC(C(=O)Nc1ccc(C#N)cc1)N1CCc2ccccc21 (stereo not drawn)
cytotoxicity at 70.5 h: 43.4%

c1csc(-c2nc(CN3CCN(c4cnccn4)CC3)co2)c1
cytotoxicity at 70.5 h: -18.4%

CCNC(=O)NC(=O)C(C)Nc1ccccc1OCCOC (stereo not drawn)
cytotoxicity at 70.5 h: -11.3%

CN(CC(=O)Nc1nc2c(s1)CCC2)C(=O)c1cccs1
cytotoxicity at 70.5 h: -12.8%

NC(=O)CN(CC(=O)NCc1cc(F)cc(F)c1)C1CCCC1
cytotoxicity at 70.5 h: -10.9%

Cc1ccc(N2CCCN(C(=O)c3cccc4c3ccn4C)CC2)nn1
cytotoxicity at 70.5 h: -7.32%

COC(=O)N1CCCC(NC(=O)NCc2csc(C)n2)C1 (stereo not drawn)
cytotoxicity at 70.5 h: -10.6%

CCNc1cc2c(nn1)CCN(C(=O)C1COc3ccccc3O1)C2 (stereo not drawn)
cytotoxicity at 70.5 h: -12.7%

CCNc1cc2c(nn1)CCN(C(=O)C1COc3ccccc3C1)C2 (stereo not drawn)
cytotoxicity at 70.5 h: -12.3%

COCc1ccc(C(=O)N2CCN(CCS(C)(=O)=O)CC2)cc1
cytotoxicity at 70.5 h: -10.7%

CC(C)CCS(=O)(=O)CC(=O)N1CCCC1c1cnn(C)c1 (stereo not drawn)
cytotoxicity at 70.5 h: -5.18%

CN(C)c1cc2c(nn1)CCN(C(=O)C1COc3ccccc3C1)C2 (stereo not drawn)
cytotoxicity at 70.5 h: 3.17%

CN(C)c1cc2c(nn1)CCN(C(=O)c1cc3c(s1)CCOC3)C2
cytotoxicity at 70.5 h: -15.2%

Cc1csc(C2CCCN(C(=O)c3cnn4ccc(C)nc34)C2)n1 (stereo not drawn)
cytotoxicity at 70.5 h: -8.34%

CC(CNC(=O)c1cc(N2CCNC2=O)ccc1F)c1ccccc1 (stereo not drawn)
cytotoxicity at 70.5 h: -6.76%

COCCNc1ccccc1CNC(=O)NCc1cnc(C)s1
cytotoxicity at 70.5 h: -0.0167%

COCCNc1ccccc1CNC(=O)NCc1nc(C)c(C)s1
cytotoxicity at 70.5 h: -7.21%

CCOCCN1CCN(CCC(=O)N2CCCCC2)CC1
cytotoxicity at 70.5 h: -8.84%

COc1cc(CN2CCC(NC(=O)c3cccn3C)C2)cc(OC)c1 (stereo not drawn)
cytotoxicity at 70.5 h: -7.95%

CCCNC(=O)Cn1c(C)nn(C(C)(C)C)c1=O
cytotoxicity at 70.5 h: 9.3%

CC(C)N(CCNC(=O)N1CCCC(N(C)C)C1)C1CC1 (stereo not drawn)
cytotoxicity at 70.5 h: 13.5%

COC1CCN(CCNC(=O)NC(C)c2ccc(F)c(F)c2)CC1 (stereo not drawn)
cytotoxicity at 70.5 h: 23.5%

CCCNC1(c2ccc(Cl)cc2)CCOCC1
cytotoxicity at 70.5 h: 6.67%

O=C(CNC(=O)C1CC1)NCc1ccc(Cl)s1
cytotoxicity at 70.5 h: 1.44%

Cc1sc(-c2ccco2)nc1C(=O)N(CC1CCOC1)C1CC1 (stereo not drawn)
cytotoxicity at 70.5 h: -1.94%

CCN(CC1CCOC1)C(=O)c1nc(-c2ccco2)sc1C (stereo not drawn)
cytotoxicity at 70.5 h: -2.01%

Cc1sc(-c2ccco2)nc1C(=O)NCC1CCOC1 (stereo not drawn)
cytotoxicity at 70.5 h: 1.39%

O=C(Nc1ccc(-n2cncn2)nc1)N(CC1CCOC1)C1CC1 (stereo not drawn)
cytotoxicity at 70.5 h: -1.97%

Cc1sc(-c2ccco2)nc1C(=O)N(CC(N)=O)C1CCCC1
cytotoxicity at 70.5 h: -2.05%

CN(CCCNC(=O)c1ccccc1OCC(N)=O)CC(F)(F)F
cytotoxicity at 70.5 h: 1.62%

Cc1nc(CSCCC(=O)NCCNC(=O)OC(C)(C)C)cs1
cytotoxicity at 70.5 h: 3.27%

Cc1ccc(-c2nc(C(=O)N3CCCCC3CNS(C)(=O)=O)cs2)cc1 (stereo not drawn)
cytotoxicity at 70.5 h: 11%

COCCC(=O)N1CCC(Nc2ncc(Cl)cn2)CC1
cytotoxicity at 70.5 h: 0.73%

Cc1ccc(CNC(=O)N2CCN(C(C)c3cccnc3)CC2)cn1 (stereo not drawn)
cytotoxicity at 70.5 h: -3.85%

Cn1cc(N2CCCC(Nc3ccc4c(c3)CCCO4)C2=O)cn1 (stereo not drawn)
cytotoxicity at 70.5 h: -0.945%

COC1CCN(CCNC(=O)NC(C)c2cccc(Cl)c2)CC1 (stereo not drawn)
cytotoxicity at 70.5 h: -0.888%

CC(NC(=O)COc1cccc[n+]1[O-])C1CC1 (stereo not drawn)
cytotoxicity at 70.5 h: -4.57%

COCCN(C(=O)c1nc(-c2ccco2)sc1C)C1CC1
cytotoxicity at 70.5 h: -2.88%

Cc1ccc(-n2cnnn2)cc1NCC(=O)Nc1cc(F)ccc1F
cytotoxicity at 70.5 h: -66.2%

Cc1ccc(-n2cnnn2)cc1NCC(=O)Nc1ccccc1Cl
cytotoxicity at 70.5 h: -101%

CCC(C)NC(=O)c1nnn(-c2cccc3c2CCN(C)C3)c1C (stereo not drawn)
cytotoxicity at 70.5 h: 2.37%

COCCCNC(=O)Nc1cccc2c1CCN(S(C)(=O)=O)C2
cytotoxicity at 70.5 h: 21.4%

CC(C)NC(=O)Nc1cccc2c1CCN(S(C)(=O)=O)C2
cytotoxicity at 70.5 h: -1.67%

CS(=O)(=O)N1CCc2c(cccc2NC(=O)NC2CCCC2)C1
cytotoxicity at 70.5 h: -3.1%

CCSc1ccc(C(=O)NCCc2nnc(-c3ccco3)[nH]2)cn1
cytotoxicity at 70.5 h: -6.64%

COc1ccc(COCC(=O)NC2CCc3nc(C)cn3C2)cc1 (stereo not drawn)
cytotoxicity at 70.5 h: -2.95%

O=C(Nc1nnc[nH]1)C(c1cccc(F)c1)N1CCOCC1 (stereo not drawn)
cytotoxicity at 70.5 h: -1.33%

CC(C)(CC(=O)Nc1cccc(Oc2ccccn2)c1)C(=O)O
cytotoxicity at 70.5 h: -5.32%

Cc1cc(NS(=O)(=O)c2cccs2)ccc1-n1cccc1C(=O)O
cytotoxicity at 70.5 h: -1.78%

COCCN(Cc1cccnc1)S(=O)(=O)c1cc(C)ccc1F
cytotoxicity at 70.5 h: -5.06%

Cn1ccnc1CNC(=O)N(CCCO)C1CCc2ccccc21 (stereo not drawn)
cytotoxicity at 70.5 h: -4.97%

Cc1nc(C)n(CC2CCCCN2Cc2nnc(-c3ccco3)o2)n1 (stereo not drawn)
cytotoxicity at 70.5 h: -6.54%

COCCN(Cc1cccnc1)S(=O)(=O)c1ccc(F)cc1C
cytotoxicity at 70.5 h: -4.8%

COc1ccccc1CN(C)C(=O)CN1CC(n2nc(C)cc2C)C1
cytotoxicity at 70.5 h: -2.12%

Cc1nc(C)n(CC2CCCN(Cc3nnc(C4CC4)o3)C2)n1 (stereo not drawn)
cytotoxicity at 70.5 h: -7.21%

Cc1cn2c(n1)CCC(NC(=O)COCCOc1ccccc1)C2 (stereo not drawn)
cytotoxicity at 70.5 h: -8.88%

Cc1nc(C)n(CC2CCCN2Cc2nnc(-c3ccco3)o2)n1 (stereo not drawn)
cytotoxicity at 70.5 h: 11.1%

COc1cccc(CNc2cc(CO)ccc2Cl)c1
cytotoxicity at 70.5 h: -8.65%

CC(C)Oc1ncc(C(=O)N2CCCC(C(=O)O)C2)cc1Cl (stereo not drawn)
cytotoxicity at 70.5 h: -7.98%

CN(Cc1ccc(Cl)s1)C(=O)Cn1nc(-c2ccc(F)cc2)oc1=O
cytotoxicity at 70.5 h: -13.3%

CN(Cc1cccc(Cl)c1)C(=O)Cn1nc(-c2ccc(F)cc2)oc1=O
cytotoxicity at 70.5 h: -2.8%

Cc1cc(=O)n2ncnc2n1CC(O)COCc1ccccc1Cl (stereo not drawn)
cytotoxicity at 70.5 h: -9.61%

CC(C)c1ccc(CS(=O)(=O)CC(=O)NCc2ccccc2F)cc1
cytotoxicity at 70.5 h: -17.3%

O=C(NCC(O)c1ccc(F)c(F)c1)c1ccccc1F (stereo not drawn)
cytotoxicity at 70.5 h: -9.96%

Cc1ccccc1C(=O)NCC(O)c1ccc(F)c(F)c1 (stereo not drawn)
cytotoxicity at 70.5 h: -5.82%

COc1ncccc1CNC(=O)CN1CCCCCC1=O
cytotoxicity at 70.5 h: -16.5%

CC(NCc1ccc(C(N)=O)cc1)c1ccc(Cl)c(Cl)c1 (stereo not drawn)
cytotoxicity at 70.5 h: -11.9%

O=C(Nc1ccc(F)cc1)C(c1ccccc1)N1CCOCC1 (stereo not drawn)
cytotoxicity at 70.5 h: 5.55%
